This is an account of results in publication PMC7767506, “Synthesis and Characterization of Store-Operated Calcium Entry Inhibitors Active in the Submicromolar Range” (International Journal of Molecular Sciences, 2020).

One experiment concerns the target T1, IP3R1 (Mus musculus, UniProt P11881).
T1 construct: expressed in transfected cells; host or cells: L15 fibroblast cell line (gift of Katsuhiko Mikoshiba), saponin-permeabilized
Nature of the experiment: IP3-induced Ca2+ release (IICR) in permeabilized L15 fibroblasts overexpressing IP3R1. It counts as cell-based. Here is the method: (§1) Measurements of SERCA-mediated ^45Ca^2+ store loading and IP3-dependent release from the ER Ca^2+ store were performed on permeabilized cells in unidirectional conditions. As this approach required the use of cells forming strongly adherent monolayers, we used L15 fibroblasts stably overexpressing IP3R1, similarly to our previous work.
(§2) The L15 fibroblasts stably overexpressing IP3R1 were seeded in gelatin-coated 12-well plates (Greiner, Frickenhausen, Germany) at a density of 60,000 cells per well. Unidirectional ^45Ca^2+ flux experiments on confluent cell monolayers were performed at 30 °C after membrane permeabilization with saponin (40 µg/mL), exactly as previously described. After permeabilization, the non-mitochondrial Ca^2+ stores were loaded for 45 min in 120 mM KCl, 30 mM imidazole–HCl (pH 6.8), 5 mM MgCl2, 5 mM ATP, 0.44 mM EGTA, 10 mM NaN3, and 150 nM free ^45Ca^2+ (28 µCi mL^−1). Subsequently, efflux was initiated by incubation in efflux medium (120 mM KCl, 1 mM EGTA, 10 µM TG and 30 mM imidazole–HCl pH 6.8). The latter medium was replaced every two minutes for 18 minutes. The exact amount of Ca^2+ at each time point is calculated by summing in retrograde order the amount of radioactivity remaining in the cells at the end of the efflux and the radioactivity collected during the successive time intervals. This allows to calculate the steady-state content of the ER Ca^2+ stores (indicative for the SERCA activity, after subtraction of the loading achieved in the presence of 2 µM TG) the basal leak rate of Ca^2+ out of the stores and the IP3-induced Ca^2+ release after addition of IP3 (0.7 µM). These various parameters were measured both in control conditions or in the presence of various 2-APB analogs as indicated. To assess the effect of the 2-APB analogs on the SERCA-mediated loading of the ER Ca^2+ stores, the analogs were added during the ^45Ca^2+-loading phase as described previously. […]

The subject of experiment [1] is IL-2 synthesis by Jurkat T cells. In words: IL-2 ELISA in supernatants of Jurkat cells. In kind it is cell-based, human. Here is the method: We next studied the effect of increasing [P11] on the neo-synthesized IL-2 concentration in the medium of PHA -stimulated Jurkat cells after 24 h.
Forty-eight-well plates were seeded with 10^6 Jurkat T cells per well. Cells were then incubated for 24 h with or without 10 µg/mL PHA and 0 to 1 µM P11 in complete culture medium. After 24 h, supernatants were collected, and IL-2 amounts were quantified using a Quantikine Human IL-2 Immunoassay (R&D Systems Europe, Lille, France). Optical density (OD) was measured at 450 nm using a Victor3 plate reader (Perkin Elmer, Courtaboeuf, France). The concentration of supernatant IL-2 was determined from the OD curve obtained with the standard. Results were the mean of four repeats. In parallel plates, cell viability was accessed after treatment with trypan blue and counting with a Malassez hematimeter (Sigma-Aldrich, Saint Quentin Fallavier, France).
A general note: An ELISA detects its analyte on a solid surface through an enzyme-linked reagent.

For experiment [2], the system named is SOCE in U937 (human monocytic lymphoma cell line). Nature of the experiment: Thapsigargin-induced SOCE in U937 cells, Indo-1. In kind it is cell-based. Here is the method: We also tested P11 on the DG75 (Burkitt B lymphoma), U937 (monocytic lymphoma), and MDA-MB231 (breast carcinoma) cell lines. […] Thus, in several cell lines, full inhibition of the SOCE was already obtained at a concentration of 100 nM (Figure 3B).
(§3) [Ca^2+]cyt was recorded by a fluorimetric ratio technique as previously described. Leukocytes were spun and resuspended at a density of 10^6 cells/mL in Hepes buffered saline (HBS; 135 mM NaCl, 5.9 mM KCl, 1.2 mM MgCl2, 11.6 mM Hepes, 11.5 mM glucose adjusted to pH 7.3 with NaOH). Due to the presence of 0.002% Ca^2+ in the NaCl, this HBS medium contained 0.1 mM of Ca^2+. Then, cells were incubated in the dark with 4 μM Indo-1-AM for one hour at room temperature under slow agitation. […] Ultraviolet light of 360 nm was used for excitation of Indo-1, and emissions at 405 and 480 nm were recorded. […] The maximum Indo-1 fluorescence (Rmax) was obtained by adding 1 µM ionomycin to the cell suspension in the presence of 10 mM extracellular CaCl2. Minimum fluorescence was determined following the depletion of external Ca^2+ with 5 mM EGTA.
(§4) To visualize the SOCE, cells were placed into the quartz cuvette and 0.5 EGTA was added just before the beginning of the recordings. […] In the dose-response experiments, different concentrations of 2-APB and its analogs were added 30 s prior to Ca^2+ readdition.

Experiment [3] relates to ER Ca2+ stores of L15 fibroblasts. In words: Basal Ca2+ leak from ER stores, unidirectional 45Ca2+ flux in permeabilized L15 fibroblasts. It counts as cell-based. Here is the method: as §1
as §2, with “The latter medium was replaced every two minutes for 18 minutes.” left out, “This allows to calculate the steady-state content of the ER Ca^2+ stores (indicative for the SERCA activity, after subtraction of the loading achieved in the presence of 2 µM TG) the basal leak rate of Ca^2+ out of the stores and the IP3-induced Ca^2+ release after addition of IP3 (0.7 µM).” left out, “indicated.” for “indicated. To assess the effect of the 2-APB analogs on the SERCA-mediated loading of the ER Ca^2+ stores, the analogs were added during the ^45Ca^2+-loading phase as described previously.”

Experiment [4] concerns Orai1-expressing lymphoblastoid cell line. Nature of the experiment: SOCE in Orai1-expressing lymphoblastoid cell line (LCL Orai1+). It counts as cell-based, human. The conditions noted are these: 1 µM. Here is the method: (§5) We next tested P11 efficacy on two lymphoblastoid cell lines (“LCL”) established from an Orai1-deficient with a severe combined immunodeficiency (“LCL Orai1−”) and a healthy (“LCL Orai1+”) patients (Figure 3C [19]). […] However, CaCl2 addition after 10 min of TG treatment was only able to induce a massive [Ca^2+]cyt rise in LCL expressing Orai1 proteins, confirming the SOCE default of the SCID patient.
as §3, with “Ca^2+.” for “Ca^2+. Then, cells were incubated in the dark with 4 μM Indo-1-AM for one hour at room temperature under slow agitation.”
as §4

The test system of experiment [5] is Orai1-deficient lymphoblastoid cell line. Nature of the experiment: SOCE in Orai1-deficient lymphoblastoid cell line (LCL Orai1-). It counts as cell-based, human. The conditions noted are these: 1 µM. Here is the method:
as §5
as §3, with “Ca^2+.” for “Ca^2+. Then, cells were incubated in the dark with 4 μM Indo-1-AM for one hour at room temperature under slow agitation.”
as §4

For orientation: Ki means a measure of affinity in units of concentration, obtained from inhibition or displacement.

Entries after “also recorded” stand apart in the source; their conditions may differ.

T1 sequence (P11881 whole entry): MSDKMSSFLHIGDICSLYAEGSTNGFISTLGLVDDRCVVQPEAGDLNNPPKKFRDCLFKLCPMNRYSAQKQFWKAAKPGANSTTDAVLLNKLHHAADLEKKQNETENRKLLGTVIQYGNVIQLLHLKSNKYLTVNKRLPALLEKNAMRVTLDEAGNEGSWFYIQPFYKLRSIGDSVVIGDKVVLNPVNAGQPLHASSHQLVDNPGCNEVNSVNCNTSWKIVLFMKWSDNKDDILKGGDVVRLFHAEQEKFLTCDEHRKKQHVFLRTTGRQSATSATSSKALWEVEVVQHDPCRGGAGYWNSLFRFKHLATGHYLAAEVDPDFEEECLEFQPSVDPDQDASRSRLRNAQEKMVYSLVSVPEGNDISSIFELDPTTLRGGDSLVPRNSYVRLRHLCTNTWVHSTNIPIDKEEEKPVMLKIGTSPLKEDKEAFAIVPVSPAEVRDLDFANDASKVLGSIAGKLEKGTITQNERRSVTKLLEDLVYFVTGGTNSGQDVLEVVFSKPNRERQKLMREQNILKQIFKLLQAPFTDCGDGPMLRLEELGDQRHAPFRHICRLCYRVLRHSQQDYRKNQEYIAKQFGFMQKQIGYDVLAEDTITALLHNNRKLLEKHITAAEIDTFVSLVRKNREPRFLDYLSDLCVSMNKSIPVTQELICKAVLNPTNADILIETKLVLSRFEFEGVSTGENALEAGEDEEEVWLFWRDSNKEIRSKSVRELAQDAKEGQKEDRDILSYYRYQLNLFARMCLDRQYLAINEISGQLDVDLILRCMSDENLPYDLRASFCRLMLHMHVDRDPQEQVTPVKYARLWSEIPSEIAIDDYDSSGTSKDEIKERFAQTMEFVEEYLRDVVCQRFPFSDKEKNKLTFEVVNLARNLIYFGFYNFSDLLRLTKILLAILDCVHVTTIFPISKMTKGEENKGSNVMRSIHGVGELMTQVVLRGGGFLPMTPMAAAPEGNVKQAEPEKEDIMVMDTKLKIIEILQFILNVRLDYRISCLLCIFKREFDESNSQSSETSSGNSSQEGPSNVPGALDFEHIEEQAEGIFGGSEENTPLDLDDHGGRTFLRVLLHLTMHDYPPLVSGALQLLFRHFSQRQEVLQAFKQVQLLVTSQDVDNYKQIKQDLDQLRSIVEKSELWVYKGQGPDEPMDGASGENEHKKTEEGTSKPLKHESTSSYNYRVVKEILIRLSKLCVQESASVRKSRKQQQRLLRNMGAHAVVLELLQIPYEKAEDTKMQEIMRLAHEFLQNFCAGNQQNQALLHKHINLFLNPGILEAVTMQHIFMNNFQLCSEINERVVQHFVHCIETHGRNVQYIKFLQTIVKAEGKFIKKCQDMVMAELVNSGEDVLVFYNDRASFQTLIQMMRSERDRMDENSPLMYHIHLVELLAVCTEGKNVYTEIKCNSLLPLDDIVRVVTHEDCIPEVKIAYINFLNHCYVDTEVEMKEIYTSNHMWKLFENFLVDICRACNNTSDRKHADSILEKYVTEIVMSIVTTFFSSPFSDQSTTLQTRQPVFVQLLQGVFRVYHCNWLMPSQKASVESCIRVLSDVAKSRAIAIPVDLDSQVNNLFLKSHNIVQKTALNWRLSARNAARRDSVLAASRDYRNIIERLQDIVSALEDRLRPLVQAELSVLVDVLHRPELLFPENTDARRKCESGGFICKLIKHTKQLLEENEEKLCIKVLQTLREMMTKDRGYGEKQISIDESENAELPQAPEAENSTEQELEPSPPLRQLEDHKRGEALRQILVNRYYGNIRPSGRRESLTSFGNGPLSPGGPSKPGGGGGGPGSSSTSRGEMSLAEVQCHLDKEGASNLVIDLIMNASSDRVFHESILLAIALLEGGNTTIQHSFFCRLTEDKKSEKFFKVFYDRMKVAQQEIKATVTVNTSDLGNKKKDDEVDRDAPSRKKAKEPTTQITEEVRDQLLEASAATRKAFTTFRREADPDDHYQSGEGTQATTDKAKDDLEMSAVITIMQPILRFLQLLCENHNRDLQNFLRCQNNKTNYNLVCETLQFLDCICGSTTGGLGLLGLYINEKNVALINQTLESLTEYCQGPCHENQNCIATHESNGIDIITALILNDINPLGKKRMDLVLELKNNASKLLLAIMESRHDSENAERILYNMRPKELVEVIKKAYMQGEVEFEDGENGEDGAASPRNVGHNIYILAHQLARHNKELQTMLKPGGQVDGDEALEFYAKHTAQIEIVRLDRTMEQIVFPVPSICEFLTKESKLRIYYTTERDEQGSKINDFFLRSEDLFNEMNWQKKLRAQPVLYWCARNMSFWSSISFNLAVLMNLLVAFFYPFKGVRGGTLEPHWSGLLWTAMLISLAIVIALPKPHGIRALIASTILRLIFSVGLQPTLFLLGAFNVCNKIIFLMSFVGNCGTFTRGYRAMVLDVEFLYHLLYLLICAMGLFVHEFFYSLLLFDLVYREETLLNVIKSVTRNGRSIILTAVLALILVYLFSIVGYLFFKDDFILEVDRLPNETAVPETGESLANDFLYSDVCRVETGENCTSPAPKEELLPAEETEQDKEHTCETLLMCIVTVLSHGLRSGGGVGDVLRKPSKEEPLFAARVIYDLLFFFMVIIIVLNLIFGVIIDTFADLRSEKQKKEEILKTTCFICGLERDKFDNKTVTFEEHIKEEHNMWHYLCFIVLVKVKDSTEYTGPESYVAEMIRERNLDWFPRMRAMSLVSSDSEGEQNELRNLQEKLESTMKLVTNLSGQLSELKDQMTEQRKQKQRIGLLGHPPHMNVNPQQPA

“2-(dibiphenyl-4-ylboryloxy)ethanamine [P11]”: the “change of IP3R activity” value on IP3R1 (100 µM) is −29 ± 9%. Also, the “effect on IP3R” value at IP3R1 (concentrations < 1 µM) was “devoid of any inhibitory activity; also recorded: without any effect”. In experiment [1] (1 µM, no PHA), the “IL-2 synthesis by compound alone” value is listed as “not able to induce IL-2 synthesis”. Further, the “IL-2 concentration in medium” value in experiment [1] (10 µg/mL PHA + 1 µM P11, 24 h) was 26 ± 6 pg/mL. The “change of IL-2 synthesis” value in experiment [1] (10 µg/mL PHA + 1 µM P11, 24 h, vs PHA alone) is −74%. Also, in experiment [1] (PHA + P11 (highest concentration), 24 h), the “IL-2 corrected for the number of living cells” value amounted to 39.2 ± 8.6 pg/mL. The “decrease of IL-2 synthesis capacity of living cells” value in experiment [1] (PHA + P11 vs PHA alone) was “≈ 63%”. The substance also displayed an inhibition constant (Ki) in experiment [2] of 40 ± 5 nM. The “Ca2+ leak from the ER by an IP3-independent pathway” value in experiment [3] is on record as “did not induce a Ca^2+ leak”. The “effect on [Ca2+]cyt after SOCE activation” value in experiment [4] was “immediate decrease of [Ca^2+]cyt”; in experiment [5] it was “inefficient”.
